Where two headings read alike, the source gives them in different places.

The record followed here is patent US12448383B2, “Compounds and methods for treatment of viral infections” (priority 2022, dated 2025).

Data set [1] has as its system Respiratory syncytial virus recombinant with luciferase (RSV-Luc5) in HEp-2 cells. Briefly: microbe, parasite or virus in culture. The format is cell-based. Particulars: human respiratory syncytial virus.
Data set [2] is described as follows: Stability in pH7 buffered solution. The format is physicochemical. The following applies: pH7 phosphate buffer, 40° C., Table N2. As to the method:
(§1) Example N: Stability in p112 and p117 Buffered Solutions
(§2) The aqueous stability of compounds over a time of 24 hours at 40° C. was assessed. Stability was determined in 50 mM phosphate buffered solutions at both pH2 and pH7, with 150 mM NaCl (to achieve isotonicity). 3-5 mg of solid compounds were added to 7 mL scintillation vials. Acetonitrile was added to each vial to produce a 1 mg/mL stock solution. Stock solutions were diluted to 50 μg/mL in either pH2 or pH7 phosphate buffer, to a volume of 1 mL. For each compound and pH condition, 50 μg/mL samples were prepped in duplicate. One sample was placed on the UPLC tray at 40° C. for analysis, and the second sample was placed in a 40° C. oven for storage. Sample preps for each compound were offset by 40 minutes to account for run time on UPLC.
(§3) Concentration timepoints were measured at 0, 3, 6, 9, and 12 hrs. After 24 hrs, samples in the 40° C. oven were removed and analyzed by UPLC.
(§4) In FIG. 2, % AN stands for % area normalized. That is, % AN is the area of the compound peak relative to the sum of areas of all the peaks in the UPLC chromatogram. For example, if there were two peaks, compound peak with an area of 9 and another peak with an area of 1, then the % AN of the compound peak would be 90%.

A short description of data set [3]: CC50 MT4 cytotoxicity (Cell-Titer Glo). It counts as cell-based. The following applies: human. The method in brief: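 Uninfected MT-4 and HEp-2 cells cultured 4-5 days at 37° C with 3-fold serially diluted compound (15 nM to 100,000 nM). Viability read by Cell-Titer Glo luminescence; untreated and 2 μM puromycin wells set 100% and 0%. CC50 from non-linear regression as concentration reducing viability by 50%.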

Data set [4] is described as follows: Stability in pH2 buffered solution. It counts as physicochemical. Particulars: pH2 phosphate buffer, 40° C., 24 h; Table N2. As to the method:
as §1, §2, §3, §4

In data set [5] the test system is Respiratory syncytial virus recombinant with luciferase (RSV-Luc5) in Normal Human Bronchial Epithelial (NHBE) cells. Put plainly: microbe, parasite or virus in culture. The format is cell-based.
Data set [6] relates to SARS Coronavirus 2 recombinant with NanoLuc (SARS-CoV2-NLuc) in A549-hACE2 cells. Briefly: organism not typed. It counts as cell-based.
Data set [7] has as its system Caco-2 cells (clone C2BBe1). Briefly: CACO-2 permeability. Further details: unit not given here. The format is in vitro ADME. Particulars: for DM Caco2 A to B: apical to basolateral, donor pH 6.5, receiver pH 7.4; for DM Caco2 B to A: basolateral to apical. The gist of the method:
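Caco-2 monolayers grown 21 days on collagen-coated transwells and checked for integrity by TEER. Donor buffer was HBSS/HEPES/glucose pH 6.5 with 200 μM BNPP; receiver was pH 7.4 with BSA. Compounds were dosed apically or basolaterally for A-to-B and B-to-A transport, with receiver sampling at 1 and 2 h, LC-MS/MS analysis and percent recovery.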
For orientation: Caco-2 monolayers are a common model of the intestinal barrier.

Another data set can be described thus: Plasma stability. The format is in vitro ADME. More on the design: unit not given here. The following applies: 37° C., 2 μM substrate. The method in brief: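 Reaction mixture was sampled at 0.05, 0.5, 1, 2, 3 and 4 hr into quench solution containing internal standard, then centrifuged and diluted with water. Remaining analyte was measured by LC-MS on a Q-Exactive using a formic acid/acetonitrile gradient, with 5 ppm mass tolerance.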

Data set [8] can be described thus: GI S9 stability - no PMSF. Particulars: pH 7.4; human intestinal S9, PMSF-free; read-out: GIS9-HUMAN-NoPMSF T1/2. The format is in vitro ADME. The gist of the method:
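Compounds were incubated at 2 μM with PMSF-free intestinal S9 (1 mg/mL protein) in 100 mM PBS, pH 7.4, sampling at 6 time points over 120 min. Parent disappearance and formation of the nucleoside metabolite Reference Compound A were quantified by LC-MS (Q-Exactive) using analyte/internal standard peak area ratios.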

The mark [9] stands for this setting: HEp-2, read-out: EC50 RSVFluc-Hep2 384 V2.
The mark [10] stands for this setting: read-out: EC50 RSVFluc-NHBE 384 V2.
Where [11] appears, read: A549; read-out: EC50 SARS CoV2 NanoLuc A549 384.

Consider `CCCC(=O)Nc1ncnn2c([C@]3(C#N)O[C@H](COC(=O)OCC(C)C)[C@@H](O)[C@H]3O)ccc12` [Compound 21, [(2R,3S,4R,5R)-5-[4-(butanoylamino)pyrrolo[2,1-f][1,2,4]triazin-7-yl]-5-cyano-3,4-dihydroxy-tetrahydrofuran-2-yl]methyl isobutyl carbonate], for which the concentration for a half-maximal effect (EC50) in data set [1] (HEp-2, 72 h, read-out: RSV Hep2 EC50) turned out to be 2380 nM; in data set [5] (72 h, read-out: RSV NHBE EC50), 2250 nM; in data set [6] (48 h; read-out: SARS-CoV2 EC50), 12.9 µM. Besides, the “pH 7 Stability 24 h % AN” value in [2] is given as 92 % AN. The CC50 in data set [3] is greater than 50 µM. Besides, in [4], the “pH 2 Stability 24 h % AN” value stood at 0 % AN. Further, the “DM Caco2 A to B” value in data set [7] was found to be 1.36. In data set [7], the “DM Caco2 B to A” value was 8.33.

As for `CCC(C)(C)OC(=O)OC[C@H]1O[C@@](C#N)(c2ccc3c(N)ncnn23)[C@H](OC(=O)OC(C)(C)CC)[C@@H]1OC(=O)OC(C)(C)CC` [Compound 60, (2R,3R,4R,5R)-2-(4-aminopyrrolo[2,1-f][1,2,4]triazin-7-yl)-2-cyano-5-((((tert-pentyloxy)carbonyl)oxy)methyl)tetrahydrofuran-3,4-diyl di-tert-pentyl bis(carbonate)], the “pH 7 Stability 24 h % AN” value in [2] was 0 % AN. Further, the “STA Human Plasma 37” value in “Plasma stability” was 1584. Also, the CC50 in [3] (uninfected MT-4 cells, 4-5 days, read-out: MT4 CC50) came to 32.9 µM. Also, the “pH 2 Stability 24 h % AN” value in data set [4] came out at 0 % AN. For the same molecule, in data set [5] (72 h, read-out: RSV NHBE EC50), the EC50 stood at 1580 nM. Moreover, in data set [8], the half-life at 2 µM was 44.9 min. Moreover, the EC50 in data set [6] (48 h, read-out: SARS-CoV2 EC50) was 2.69 µM. In addition, in data set [7], the “DM Caco2 A to B” value was 0.12 and the “DM Caco2 B to A” value is reported as 0.32.

For the molecule `CC(C)(OC(=O)OC[C@H]1O[C@@](C#N)(c2ccc3c(N)ncnn23)[C@H](O)[C@@H]1O)C(F)(F)F` [Compound 67, ((2R,3S,4R,5R)-5-(4-aminopyrrolo[2,1-f][1,2,4]triazin-7-yl)-5-cyano-3,4-dihydroxytetrahydrofuran-2-yl)methyl (1,1,1-trifluoro-2-methylpropan-2-yl) carbonate], the “pH 7 Stability 24 h % AN” value in data set [2] is listed as 91 % AN. For the same molecule, the “STA Human Plasma 37” value in “Plasma stability” amounted to 1177.1. The molecule also gave a CC50 in data set [3] greater than 50 µM. Besides, in data set [4], the “pH 2 Stability 24 h % AN” value came to 95 % AN. Moreover, in [5] (72 h, read-out: RSV NHBE EC50), the EC50 stood at 1520 nM. Moreover, in data set [8], the half-life at 2 µM was 10.5 min. Besides, the 50% effective concentration (EC50) in [6] (48 h; read-out: SARS-CoV2 EC50) came to 12.8 µM. Besides, in data set [7], the “DM Caco2 A to B” value was 0.99 and the “DM Caco2 B to A” value is 9.76.

Turning to `N#C[C@@]1(c2ccc3c(N)ncnn23)O[C@H](COC(=O)OCC2(C(F)(F)F)CC2)[C@@H](O)[C@H]1O` [Compound 120, ((2R,3S,4R,5R)-5-(4-aminopyrrolo[2,1-f][1,2,4]triazin-7-yl)-5-cyano-3,4-dihydroxytetrahydrofuran-2-yl)methyl ((1-(trifluoromethyl)cyclopropyl)methyl) carbonate], the concentration giving a half-maximal response (EC50) in data set [1] (setting [9]) was found to be 816 nM; in [5] (setting [10]), 1260 nM; in [6] (setting [11]) it was 1.41 µM. Besides, the “STA Human Plasma 37” value in “Plasma stability” came to 38.7. The molecule further displayed a CC50 in data set [3] greater than 50 µM. Moreover, the half-life at 2 µM in data set [8] amounted to 0.605 min. Further, in [7], the “DM Caco2 A to B” value turned out to be 0.77. In addition, the “DM Caco2 B to A” value in [7] is 8.35. Also, the logD in the data set “physchem” was 1.6.

For the molecule `N#CC12CC(COC(=O)OC[C@H]3O[C@@](C#N)(c4ccc5c(N)ncnn45)[C@H](O)[C@@H]3O)(C1)C2` [Compound 121, ((2R,3S,4R,5R)-5-(4-aminopyrrolo[2,1-f][1,2,4]triazin-7-yl)-5-cyano-3,4-dihydroxytetrahydrofuran-2-yl)methyl ((3-cyanobicyclo[1.1.1]pentan-1-yl)methyl) carbonate], the EC50 in [1] (setting [9]) amounted to 1510 nM; in [5] (setting [10]), 1560 nM; in data set [6] (setting [11]), 7.97 µM. Besides, the “STA Human Plasma 37” value in “Plasma stability” is on record as 107.7. Also, the CC50 in [3] was greater than 50 µM. In data set [8], the half-life at 2 µM came to 1.58 min. In addition, the “DM Caco2 A to B” value in data set [7] is reported as 0.08. In addition, in data set [7], the “DM Caco2 B to A” value was found to be 4.15. In “physchem”, this molecule yielded a log distribution coefficient (logD) of 1.1.

With `CC1(COC(=O)OC[C@H]2O[C@@](C#N)(c3ccc4c(N)ncnn34)[C@H](O)[C@@H]2O)CCCC1` [Compound 123, ((2R,3S,4R,5R)-5-(4-aminopyrrolo[2,1-f][1,2,4]triazin-7-yl)-5-cyano-3,4-dihydroxytetrahydrofuran-2-yl)methyl ((1-methylcyclopentyl)methyl) carbonate], the results for the half-maximal effective concentration (EC50) in data set [1] (setting [9]), in data set [5] (setting [10]) and in data set [6] (setting [11]) were 720 nM, 1810 nM and 1.16 µM, respectively. Further, in the data set “Plasma stability”, the “STA Human Plasma 37” value was determined as 96.5. The molecule further gave a 50% cytotoxic concentration (CC50) in data set [3] greater than 50 µM. The half-life at 2 µM in data set [8] was 0.615 min. Further, in data set [7], the “DM Caco2 A to B” value is 3.18. The “DM Caco2 B to A” value in data set [7] is recorded as 9.88. For the same molecule, the logD in “physchem” stood at 2.2.

Turning to `CCCCCCCCCCOC(=O)OC[C@H]1O[C@@](C#N)(c2ccc3c(N)ncnn23)[C@H](O)[C@@H]1O` [Compound 124, ((2R,3S,4R,5R)-5-(4-aminopyrrolo[2,1-f][1,2,4]triazin-7-yl)-5-cyano-3,4-dihydroxytetrahydrofuran-2-yl)methyl decyl carbonate], the EC50 stood at 723 nM in data set [1] (setting [9]), 625 nM in [5] (setting [10]) and 1.14 µM in data set [6] (setting [11]). In addition, the “STA Human Plasma 37” value in the data set “Plasma stability” is on record as 192.3. In addition, the CC50 in [3] was 27.6 µM. For the same molecule, in data set [8], the half-life at 2 µM turned out to be 0.744 min. Moreover, in data set [7], the “DM Caco2 A to B” value stood at 0.08. The “DM Caco2 B to A” value in data set [7] came to 7.35. Also, in “physchem”, the pH-dependent lipophilicity (logD) worked out at 3.7.

Regarding `N#C[C@@]1(c2ccc3c(N)ncnn23)O[C@H](COC(=O)OC23CC4CC(CC(C4)C2)C3)[C@@H](O)[C@H]1O` [Compound 154, (3S,5S,7S)-adamantan-1-yl (((2R,3S,4R,5R)-5-(4-aminopyrrolo[2,1-f][1,2,4]-triazin-7-yl)-5-cyano-3,4-dihydroxytetrahydrofuran-2-yl)methyl) carbonate], the concentration for a half-maximal effect (EC50) in [1] (setting [9]) is 11700 nM; in [5] (setting [10]) it was 11000 nM; in data set [6] (setting [11]) it was 34 µM. Moreover, the “STA Human Plasma 37” value in “Plasma stability” was determined as 1584. In addition, the CC50 in [3] is greater than 50 µM. For the same molecule, the half-life at 2 µM in data set [8] is 279 min. The “DM Caco2 A to B” value in data set [7] worked out at 2.08. For the same molecule, in data set [7], the “DM Caco2 B to A” value came out at 14.67. The same molecule yielded a logD in “physchem” of 2.6.

`CC1=CCC(C(C)(C)OC(=O)OC[C@H]2O[C@@](C#N)(c3ccc4c(N)ncnn34)[C@H](O)[C@@H]2O)CC1` (stereo partly drawn) [Compound 155, ((2R,3S,4R,5R)-5-(4-aminopyrrolo[2,1-f][1,2,4]triazin-7-yl)-5-cyano-3,4-dihydroxytetrahydrofuran-2-yl)methyl (2-(4-methylcyclohex-3-en-1-yl)propan-2-yl) carbonate]: the concentration for a half-maximal effect (EC50) in data set [1] (setting [9]) was 1570 nM; in [5] (setting [10]) it was 1120 nM; in data set [6] (setting [11]), 3.19 µM. The “STA Human Plasma 37” value in the data set “Plasma stability” is recorded as 1584. For the same molecule, the CC50 in [3] is greater than 50 µM. For the same molecule, in data set [8], the half-life at 2 µM came to 77.5 min. Moreover, in [7], the “DM Caco2 A to B” value is given as 3.06. Moreover, the “DM Caco2 B to A” value in data set [7] stood at 10.35. This molecule also returned a logD in “physchem” of 2.8.

For orientation: EC50 means the concentration that produces a half-maximal response. What is called CC50 is the concentration at which the toxic effect on the cells reaches its halfway point. A word on the logD: it is the decadic logarithm of the distribution of all forms, ionised or not, between an organic phase and buffer at a given pH.
